BindingDB's records for doi:10.1016/j.bmcl.2003.09.058 (Pharmacor, 2003)

Each compound was assayed against T1, Dimer of Gag-Pol polyprotein [501-599] (Human immunodeficiency virus 1, UniProt P03367) (assay: Protease Inhibition Assay). Conditions: pH 4.7; 30 °C.
T1 construct: 501-599
Description: HIV-1 protease activity was measured by a continuous fluorometric assay using the internally quenched fluorogenic substrate DABCYL-Ser-Gln-Asn-Tyr-Pro-Ile-Val-Gln-EDANS. The proteolytic activity can be monitored by the increase in fluorescence intensity, and the protease products were analyzed by HPLC.

Structure (SMILES)	Ki
Cc1ccc(S(=O)(=O)N(CC(C)C)[C@@H](CCCCNC(=O)Cc2ccccc2)C(=O)O)cc1 [(2S)-2-[(4-methylbenzene)(2-methylpropyl)sulfonamido]-6-(1-phenylacetamido)hexanoic acid]	> 300 nM
Cc1ccc(S(=O)(=O)N(CC(C)C)[C@@H](CCCCNC(=O)CCCc2ccccc2)C(=O)O)cc1 [(2S)-2-[(4-methylbenzene)(2-methylpropyl)sulfonamido]-6-(4-phenylbutanamido)hexanoic acid]	> 300 nM
Cc1ccc(S(=O)(=O)N(CC(C)C)[C@@H](CCCCNC(=O)c2ccccc2)C(=O)O)cc1 [(2S)-2-[(4-methylbenzene)(2-methylpropyl)sulfonamido]-6-(phenylformamido)hexanoic acid]	> 300 nM
Cc1ccc(S(=O)(=O)N(CC(C)C)[C@@H](CCCCNC(=O)C2CC2c2ccccc2)C(=O)O)cc1 (stereo partly drawn) [(2S)-2-[(4-methylbenzene)(2-methylpropyl)sulfonamido]-6-[(2-phenylcyclopropyl)formamido]hexanoic acid]	> 300 nM
Cc1ccc(S(=O)(=O)N(CC(C)C)[C@@H](CCCCNC(=O)/C=C/c2ccccc2)C(=O)O)cc1 [(2S)-2-[(4-methylbenzene)(2-methylpropyl)sulfonamido]-6-[(2E)-3-phenylprop-2-enamido]hexanoic acid]	> 300 nM
Cc1ccc(S(=O)(=O)N(CC(C)C)[C@@H](CCCCNC(=O)C(Cc2ccccc2)C(C)(C)C)C(=O)O)cc1 (stereo partly drawn) [(2S)-6-(2-benzyl-3,3-dimethylbutanamido)-2-[(4-methylbenzene)(2-methylpropyl)sulfonamido]hexanoic acid]	> 300 nM
Cc1ccc(S(=O)(=O)N(CC(C)C)[C@@H](CCCCNC(=O)OCc2ccccc2)C(=O)O)cc1 [(2S)-6-{[(benzyloxy)carbonyl]amino}-2-[(4-methylbenzene)(2-methylpropyl)sulfonamido]hexanoic acid]	> 300 nM
